In patent US20120302629A1, “BIOMARKERS FOR GOSSYPOL CHEMOTHERAPY AND METHODS OF TREATING DISEASE” (THE REGENTS OF THE UNIVERSITY OF MICHIGAN, priority 2009, published 2012):
Numbered stars: 1 amine (or outer) side, 2 acyl side, 3 side chain; on linkers, the order of the positions; unused ones are H or OH. Bridge positions count the residues as written; N and C are the ends. Square brackets hold non-standard residues; d marks the D form. Peptide text beside a SMILES is read from it. I, II: the chains in the order shown. Actinocin(9to1) = Cc1c2oc3c(C)ccc(C(=O)[*:1])c3nc-2c(C(=O)[*:2])c(N)c1=O; NMeV = CN[C@H](C(=O)O)C(C)C; Sar = CNCC(=O)O

Experiments:
PC-3 cells [1] = assay: WST cell growth assay; type: cell-based, human; conditions: Homo sapiens, PC-3, 96 h; 4 days
Procedure: (§1) Cell Growth, Cell Death, and Apoptosis: Cell growth inhibition by (−)-gossypol was determined in a water-soluble tetrazolium (WST)-based assay, as described previously (Shangary et al., Proc. Natl. Acad. Sci. USA 105:3933 (2008)). Cell viability was determined by trypan blue due exclusion as described (Shangary et al., Proc. Natl. Acad. Sci. USA 105:3933 (2008)). Experiments were done in triplicate. To examine apoptosis, cells were stained with Annexin V and PI and analyzed by flow cytometery using an Annexin V-FITC staining kit (Roche Applied Science, Indianapolis, Ind.) according to manufacturer's instructions. Briefly, cells were treated and collected by centrifugation, washed with PBS once and then stained with annexinV-FITC and PI for 15 min at room temperature in the dark. Stained cells were analyzed in a FACS caliber flow cytometer. AnnexinV positive cells are considered as apoptotic cells.

2LMP cells [2] = assay: WST cell growth assay; type: cell-based, human; conditions: Homo sapiens, 96 h; 4 days
Procedure: as §1

PC-3 cells [3] = assay: Cell death by trypan blue dye exclusion; type: cell-based, human; conditions: Mcl-1 knock-down
Procedure: as §1

2LMP cells [4] = assay: Cell death by trypan blue dye exclusion; type: cell-based, human; conditions: for cell death: 48 h
Procedure: as §1

MEF Bax/Bak KO cells = assay: Apoptosis (Annexin V/PI flow cytometry) in MEF cells; type: cell-based; conditions: all the concentrations tested
Procedure: as §1

[5] = test system: Bcl-2 family proteins in 2LMP cells; assay: Western blot of whole cell lysates; type: cell-based, human; conditions: cotreatment with (−)-gossypol (FIG. 26)
Procedure: (§2) Western blot assay: Proteins were harvested in RIPA buffer, then electrophoresed on 4-20% gradient SDS-PAGE gels (Invitrogen, Grand Island, N.Y.) and transferred to PVDF membranes. The membranes were blocked in 5% milk and then incubated with specific primary antibody, followed by secondary antibody. The signals were visualized with the chemiluminescent HRP antibody detection reagent (Deville Scientific, Metuchen, N.J.).

[6] = test system: Bcl-2 family proteins in PC-3 cells; assay: Western blot of whole cell lysates; type: cell-based, human; conditions: cotreatment with (−)-gossypol (FIG. 26)
Procedure: as §2

[7] = test system: Noxa, Puma and Mcl-1 RNAs in 2LMP, PC-3, MDA-MB-436 and DU145 cells; assay: Taqman real-time PCR with actinomycin D cotreatment; type: cell-based, human; conditions: cotreatment with (−)-gossypol 10 μm
Procedure: Real-Time PCR: Total RNA was extracted by RNA miniprep kit (Sigma) from cells treated with or without of (−)-gossypol. cDNA was synthesized from 2 μg of RNA using cDNA reverse transcription kits (Applied Biosystems). Next, Taqman gene expression assays were performed using Noxa (Hs00560402_ml), Puma (Hs00248075_ml), Mcl-1 (Hs00172036_ml) gene specific primers/probe sets for real-time PCR in a ABI7900HT PCR machine. GAPDH (Hs99999905_ml) was used for normalization. Relative quantitation of mRNA was calculated by comparative cycle threshold (Ct) method.

## CN(C)CC[C@H](CSc1ccccc1)Nc1ccc(S(=O)(=O)NC(=O)c2ccc(N3CCN(Cc4ccccc4-c4ccc(Cl)cc4)CC3)cc2)cc1[N+](=O)[O-] [ABT-737, reference compound]
PC-3 cells [1]
  IC50: > 10 µM
2LMP cells [2]
  IC50: > 10 µM
PC-3 cells [3]
  cell death induction upon knock-down of Mcl-1: sensitizes
2LMP cells [4]; 1 μM
  cell death: no effect
2LMP cells [4]; 2.5 μM
  cell death: no effect
2LMP cells [4]; Mcl-1 knock-down
  cell death induction upon knock-down of Mcl-1: sensitizes

## COc1cc([C@@H]2c3cc4c(cc3[C@@H](O[C@@H]3O[C@@H]5CO[C@@H](C)O[C@H]5[C@H](O)[C@H]3O)[C@H]3COC(=O)[C@H]23)OCO4)cc(OC)c1O [VP-16, 4′-demethylepipodophyllotoxin 9-[4,6-0-(R)-ethylidene-(beta)-D-glucopyranoside], reference compound]
MEF Bax/Bak KO cells
  induction of cell death in the MEF Bax/Bak double knock-out: blocked

## Cc1c2oc3c(C)ccc(C(=O)N[C@@H]4C(=O)N[C@H](C(C)C)C(=O)N5CCC[C@H]5C(=O)N(C)CC(=O)N(C)[C@@H](C(C)C)C(=O)O[C@@H]4C)c3nc-2c(C(=O)N[C@@H]2C(=O)N[C@H](C(C)C)C(=O)N3CCC[C@H]3C(=O)N(C)CC(=O)N(C)[C@@H](C(C)C)C(=O)O[C@@H]2C)c(N)c1=O [actinomycin D, reference compound] (I: T[dV]P[Sar][NMeV] / II: T[dV]P[Sar][NMeV]; ester I:1-I:C, II:1-II:C; linker I:N-II:N via Actinocin(9to1))
[5]
  (−)-gossypol-upregulated Noxa and Puma proteins under cotreatment: significantly blocked
[6]
  (−)-gossypol-upregulated Noxa and Puma proteins under cotreatment: significantly blocked
[7]
  upregulation of Noxa, Puma and Mcl-1 RNAs by (−)-gossypol under cotreatment: completely blocks

## CC(C)C[C@H](NC(=O)[C@H](Cc1ccccc1)NC(=O)c1cnccn1)B(O)O [bortezomib, reference compound]
2LMP cells [4]; c-Myc siRNA, 24 h
  cell death upon knock-down of c-Myc: blocked cell death
